Assay results as given in US9593107B2, “Dihydroquinoline-2-one derivatives” (Hoffmann-La Roche Inc., priority 2014, dated 2017).
pEC50: −log10 of the molar value.

Legend:
[1] = tested on: rat model of chronic kidney disease; conditions: cited from earlier work; for cardiac and aortic medial hypertrophy / renal effects of angiotensin II and high salt (albuminuria, azotemia, renovascular hypertrophy, glomerular injury, PAI-1 and osteopontin mRNA, tubulointerstitial fibrosis): rat, in vivo
[2] = tested on: rats with experimental heart failure; conditions: rat, in vivo; cited from earlier work
[3] = tested on: patients with primary aldosteronism; conditions: oral; cited from earlier work
human CYP11B1 = target: T1, human CYP11B1 (Homo sapiens, UniProt P15538); experiment: G-402 cellular enzyme assay, human CYP11B1 (cortisol release, HTRF); assay type: cell-based; conditions: G-402 cells expressing human CYP11B1; 1 μM Deoxycortisol
T1 construct: expressed in transfected cells
T1 sequence (P15538 25-503): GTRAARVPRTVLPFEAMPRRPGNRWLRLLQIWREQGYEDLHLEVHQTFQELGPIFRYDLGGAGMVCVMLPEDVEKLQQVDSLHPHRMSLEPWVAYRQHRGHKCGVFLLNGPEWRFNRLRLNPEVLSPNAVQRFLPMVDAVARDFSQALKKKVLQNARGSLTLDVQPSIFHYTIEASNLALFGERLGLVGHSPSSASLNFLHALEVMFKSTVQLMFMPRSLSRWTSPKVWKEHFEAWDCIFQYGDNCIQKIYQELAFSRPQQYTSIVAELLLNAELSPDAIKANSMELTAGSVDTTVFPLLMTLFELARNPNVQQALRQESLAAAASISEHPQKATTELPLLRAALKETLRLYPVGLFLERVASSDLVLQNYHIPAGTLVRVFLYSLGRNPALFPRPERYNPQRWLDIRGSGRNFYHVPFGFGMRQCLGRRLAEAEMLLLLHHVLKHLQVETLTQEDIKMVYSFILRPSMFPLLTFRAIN
Source text: (§1) Herein we identified the use of the G-402 cell line as a host cell to ectopically express (transiently or stably) enzymes of the CYP11 family. Specifically we developed stable G-402 cells expressing ectopically human CYP11B1, human CYP11B2, human CYP11A1, cynmolgus CYP11B1 or cynomolgus CYP11B2 enzyme activity. Importantly the identified cell line G-402 expresses co-factors (adrenodoxin and adrenodoxin reductase) important for the activity of the CYP11 family and no relevant enzyme activity of the CYP11 family (in comparison to H295R cells) was detected in these cells. Therefore the G-402 cell line is uniquely suited as a host cell for the ectopic expression of enzymes from the CYP11 family.
(§2) The expression plasmids contains the ORF for either human/cyno CYP11B1 or CYP11B2 under the control of a suitable promoter (CMV-promoter) and a suitable resistance marker (neomycin). Using standard techniques the expression plasmid is transfected into G-402 cells and these cells are then selected for expressing the given resistance markers. Individual cell-clones are then selected and assessed for displaying the desired enzymatic activity using 11-Deoxycorticosterone (Cyp11B2) or 11-Deoxycortisol (Cyp11B1) as a substrate.
(§3) G-402 cells expressing CYP11 constructs were established as described above and maintained in McCoy's 5a Medium Modified, ATCC Catalog No. 30-2007 containing 10% FCS and 400 μg/ml G418 (Geneticin) at 37° C. under an atmosphere of 5% CO2/95% air.
(§4) Cellular enzyme assays were performed in DMEM/F12 medium containing 2.5% charcoal treated FCS and appropriate concentration of substrate (0.3-10 uM 11-Deoxycorticosterone, 11-Deoxycortisol or Corticosterone). For assaying enzymatic activity, cells were plated onto 96 well plates and incubated for 16 h. An aliquot of the supernatant is then transferred and analyzed for the concentration of the expected product (Aldosterone for CYP11B2; Cortisol for CYP11B1). The concentrations of these steroids can be determined using HTRF assays from CisBio analyzing either Aldosterone or Cortisol.
(§5) Inhibition of the release of produced steroids can be used as a measure of the respective enzyme inhibition by test compounds added during the cellular enzyme assay. The dose dependent inhibition of enzymatic activity by a compound is calculated by means of plotting added inhibitor concentrations (x-axes) vs. measured steroid/product level (y-axes). The inhibition is then calculated by fitting the following 4-parameter sigmoidal function (Morgan-Mercer-Flodin (MMF) model) to the raw data points using the least squares method:
(§6) [formula] wherein, A is the maximum y value, B is the EC50 factor determined using XLFit, C is the minimum y value and D is the slope value.
(§7) EC50 values for compounds claimed herein were tested with the G402-based assay system described. Cyp11B2 enzyme activity was tested in presence of 1 μM Deoxycorticosterone and variable amounts of inhibitors; Cyp11B1 enzyme activity was tested in presence of 1 μM Deoxycortisol and variable amounts of inhibitors.

human CYP11B2 = target: T2, human CYP11B2 (Homo sapiens, UniProt P19099); experiment: G-402 cellular enzyme assay, human CYP11B2 (aldosterone release, HTRF); assay type: cell-based; conditions: G-402 cells expressing human CYP11B2; 1 μM Deoxycorticosterone
T2 construct: expressed in transfected cells
T2 sequence (P19099 25-503): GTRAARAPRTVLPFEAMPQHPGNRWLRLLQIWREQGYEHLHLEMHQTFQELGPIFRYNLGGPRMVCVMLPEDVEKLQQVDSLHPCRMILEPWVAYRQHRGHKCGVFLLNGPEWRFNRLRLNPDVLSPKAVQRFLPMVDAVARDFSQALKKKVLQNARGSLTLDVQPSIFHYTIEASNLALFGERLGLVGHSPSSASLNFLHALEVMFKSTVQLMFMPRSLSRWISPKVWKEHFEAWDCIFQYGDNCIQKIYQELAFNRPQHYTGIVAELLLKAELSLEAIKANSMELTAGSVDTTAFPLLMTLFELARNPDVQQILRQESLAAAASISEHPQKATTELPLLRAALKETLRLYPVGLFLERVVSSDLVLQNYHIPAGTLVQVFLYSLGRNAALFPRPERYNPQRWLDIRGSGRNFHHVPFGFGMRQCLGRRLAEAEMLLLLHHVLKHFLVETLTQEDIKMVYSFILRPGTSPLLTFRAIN
Source text: as §1, §2, §3, §4, §5, §6, §7

For `CC(=O)S[C@@H]1CC2=CC(=O)CC[C@]2(C)[C@H]2CC[C@@]3(C)[C@@H](CC[C@@]34CCC(=O)O4)[C@H]12` [spironolactone], the aldosterone ([1]; at 4 and 8 weeks of treatment) is given as “increased”, the “angiotensin II and salt-stimulated PAI-1 mRNA expression” value ([1]; in the aorta and the heart) is given as “enhanced” and the “cardiac and aortic medial hypertrophy” value [1] is given as “attenuated”. For the same compound, the “renal effects of angiotensin II and high salt (albuminuria, azotemia, renovascular hypertrophy, glomerular injury, PAI-1 and osteopontin mRNA, tubulointerstitial fibrosis)” value [1] was “prevented”.
In the case of `N#Cc1ccc([C@H]2CCCc3cncn32)cc1` [FAD286], the plasma aldosterone ([1]; following 4 weeks of treatment) is listed as “reduced”, the “cardiac and aortic medial hypertrophy” value [1] is listed as “attenuated” and the “renal effects of angiotensin II and high salt (albuminuria, azotemia, renovascular hypertrophy, glomerular injury, PAI-1 and osteopontin mRNA, tubulointerstitial fibrosis)” value [1] is listed as “prevented”. The “blood pressure and cardiovascular function and structure” value [2] was “improved” and the “kidney function and morphology” value [2] was “improve”.
For `N#Cc1ccc([C@H]2CCc3cncn32)c(F)c1` [LCI699], the blood pressure [3] is given as “mildly decreased”, the circulating aldosterone levels [3] is given as “significantly lower” and the hypokalemia [3] is given as “corrected”. The “selectivity (effects on the glucocorticoid axis)” value [3] was “poor selectivity”.
`Cc1c(Cn2c(Cl)cccc2=O)cncc1-c1cc2c(cc1F)N(C)C(=O)CC2` [Example 25, 6-[5-(6-Chloro-2-oxo-2H-pyridin-1-ylmethyl)-4-methyl-pyridin-3-yl]-7-fluoro-1-methyl-3,4-dihydro-1H-quinolin-2-one] showed a pEC50 (human CYP11B1) of 6.63 and a pEC50 (human CYP11B2) of 8.68.
For `CN1C(=O)CCc2cc(-c3cncc(Cn4ccccc4=O)c3)ccc21` [Example 10, 1-Methyl-6-[5-(2-oxo-2H-pyridin-1-ylmethyl)-pyridin-3-yl]-3,4-dihydro-1H-quinolin-2-one], the pEC50 (human CYP11B1) was 5.91 and the pEC50 (human CYP11B2) was 7.54.
In the case of `CN1C(=O)CCc2cc(-c3cncc(Cn4ccsc4=O)c3)ccc21` [Example 3, 1-Methyl-6-[5-(2-oxo-thiazol-3-ylmethyl)-pyridin-3-yl]-3,4-dihydro-1H-quinolin-2-one], the pEC50 (human CYP11B1) was 6.56 and the pEC50 (human CYP11B2) was 8.44.
Work on `CN1C(=O)CCc2cc(-c3cncc(Cn4cccnc4=O)c3)ccc21` [Example 13, 1-Methyl-6-[5-(2-oxo-2H-pyrimidin-1-ylmethyl)-pyridin-3-yl]-3,4-dihydro-1H-quinolin-2-one] yielded a pEC50 (human CYP11B1) of 5.25 and a pEC50 (human CYP11B2) of 7.05.
For `Cc1cccc(=O)n1Cc1cncc(-c2cc3c(cc2F)N(C)C(=O)CC3)c1` [Example 23, 7-Fluoro-1-methyl-6-[5-(6-methyl-2-oxo-2H-pyridin-1-ylmethyl)-pyridin-3-yl]-3,4-dihydro-1H-quinolin-2-one], the pEC50 (human CYP11B1) was 5.50 and the pEC50 (human CYP11B2) was 7.90.
